The values below come from US10889625B2, “Peptide-based methods for treating neurological injury” (THE REGENTS OF THE UNIVERSITY OF COLORADO, a body corporate, priority 2016, dated 2021).

For series [1] the following is noted: mice, MCAO.
Another series concerns the target T1, TRPM2 channels (Mus musculus, UniProt Q91YD4).
T1 construct: from tissue; host or cells: mouse brain in vivo; acute hippocampal/brain slices from mice
Briefly: 60 min tMCAO, total hemisphere infarct volume (TTC) in WT mice. The class given is in vivo. The conditions noted are these: given 3 hours after MCAO.

The next series concerns the target TRPM2 ion channels (Mus musculus, UniProt Q91YD4). Particulars: males and females, background statement; cited from earlier work.

The structures appear in SMILES notation. Residues, ends and D or L forms follow the SMILES beside them.

T1 sequence (Q91YD4 whole entry): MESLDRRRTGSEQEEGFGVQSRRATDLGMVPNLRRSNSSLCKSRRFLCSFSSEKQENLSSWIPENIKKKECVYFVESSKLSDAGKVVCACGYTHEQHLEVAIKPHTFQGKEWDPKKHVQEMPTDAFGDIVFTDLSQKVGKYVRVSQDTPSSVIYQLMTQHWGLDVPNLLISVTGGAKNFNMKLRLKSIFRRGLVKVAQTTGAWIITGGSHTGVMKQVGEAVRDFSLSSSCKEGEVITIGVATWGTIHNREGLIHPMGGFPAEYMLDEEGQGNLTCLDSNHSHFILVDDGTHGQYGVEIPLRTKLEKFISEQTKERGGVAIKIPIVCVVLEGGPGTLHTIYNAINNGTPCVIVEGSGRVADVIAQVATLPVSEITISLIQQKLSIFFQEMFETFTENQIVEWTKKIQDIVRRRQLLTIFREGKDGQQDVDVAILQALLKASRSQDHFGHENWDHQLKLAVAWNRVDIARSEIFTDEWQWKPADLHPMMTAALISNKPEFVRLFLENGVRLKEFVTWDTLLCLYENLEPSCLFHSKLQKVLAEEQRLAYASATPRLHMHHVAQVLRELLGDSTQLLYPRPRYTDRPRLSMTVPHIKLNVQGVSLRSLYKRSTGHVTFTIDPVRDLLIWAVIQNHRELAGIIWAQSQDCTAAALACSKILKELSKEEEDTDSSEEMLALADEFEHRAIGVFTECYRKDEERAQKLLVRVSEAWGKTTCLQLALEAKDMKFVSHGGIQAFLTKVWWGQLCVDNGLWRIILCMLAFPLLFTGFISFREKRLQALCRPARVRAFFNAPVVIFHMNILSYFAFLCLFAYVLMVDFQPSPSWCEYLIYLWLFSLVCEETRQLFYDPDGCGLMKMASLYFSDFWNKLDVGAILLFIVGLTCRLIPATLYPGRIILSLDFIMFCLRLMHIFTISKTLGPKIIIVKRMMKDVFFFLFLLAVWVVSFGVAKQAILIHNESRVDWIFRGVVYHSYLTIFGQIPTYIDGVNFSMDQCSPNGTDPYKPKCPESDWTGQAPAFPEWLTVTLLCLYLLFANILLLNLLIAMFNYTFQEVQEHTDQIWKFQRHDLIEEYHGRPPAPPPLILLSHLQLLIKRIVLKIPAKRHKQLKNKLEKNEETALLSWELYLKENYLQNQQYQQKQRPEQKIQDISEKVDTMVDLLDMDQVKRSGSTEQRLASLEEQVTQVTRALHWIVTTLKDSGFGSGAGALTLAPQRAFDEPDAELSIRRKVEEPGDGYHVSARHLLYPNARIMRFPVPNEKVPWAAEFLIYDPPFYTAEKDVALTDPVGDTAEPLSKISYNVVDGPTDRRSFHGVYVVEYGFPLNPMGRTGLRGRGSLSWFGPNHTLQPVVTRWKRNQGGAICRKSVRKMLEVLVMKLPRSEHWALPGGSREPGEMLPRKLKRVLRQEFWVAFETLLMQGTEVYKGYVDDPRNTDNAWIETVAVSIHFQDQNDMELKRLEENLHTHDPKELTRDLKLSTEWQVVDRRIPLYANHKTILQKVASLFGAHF
Sequence of TRPM2 ion channels (Q91YD4 whole entry): as above

In the case of `CSCC[C@H](NC(=O)[C@H](CCC(=O)O)NC(=O)CNC(=O)[C@@H]1CCCN1C(=O)[C@H](CCC(=O)O)NC(=O)[C@H](CCCNC(=N)N)NC(=O)[C@H](CO)NC(=O)CNC(=O)[C@H](CCCNC(=N)N)NC(=O)[C@H](CCCNC(=N)N)NC(=O)[C@H](CCCNC(=N)N)NC(=O)[C@H](CCC(N)=O)NC(=O)[C@H](CCCNC(=N)N)NC(=O)[C@H](CCCNC(=N)N)NC(=O)[C@H](CCCCN)NC(=O)[C@H](CCCCN)NC(=O)[C@H](CCCNC(=N)N)NC(=O)CNC(=O)[C@@H](N)Cc1ccc(O)cc1)C(=O)N[C@@H](CC(C)C)C(=O)N1CCC[C@H]1C(=O)N[C@@H](CCCNC(=N)N)C(=O)N[C@@H](CCCCN)C(=O)N[C@@H](CC(C)C)C(=O)N[C@@H](CCCCN)C(=O)N[C@@H](CCCNC(=N)N)C(=O)N[C@H](C(=O)N[C@@H](CC(C)C)C(=O)N[C@@H](CCCNC(=N)N)C(=O)N[C@@H](CCC(N)=O)C(=O)N[C@@H](CCC(=O)O)C(=O)N[C@@H](Cc1ccccc1)C(=O)N[C@@H](Cc1c[nH]c2ccccc12)C(=O)N[C@H](C(=O)O)C(C)C)C(C)C` [tat-M2NX] (H-YGRKKRRQRRRGSREPGEMLPRKLKRVLRQEFWV-OH; N-terminus and C-terminus assumed), the “effect on physiological variables such as blood pressure” value in series [1] is given as “no effect”.
With `Clc1ccccc1C(c1ccccc1)(c1ccccc1)n1ccnc1` [CTZ, clotrimazole], on TRPM2 channels, the infarct volume is 46.8±7.4%. In addition, the “infarct size following stroke” value at TRPM2 ion channels is on record as “reduces infarct size in males, but not females”.
